pIC50: −log10 of the molar value.
Legend:
OATP1B3 = biological target: T1, OATP1B3 (Homo sapiens, UniProt Q9NPD5); type: cell-based; details: hek293 cells
T1 construct: gene SLCO1B3
T1 sequence (Q9NPD5 1-702): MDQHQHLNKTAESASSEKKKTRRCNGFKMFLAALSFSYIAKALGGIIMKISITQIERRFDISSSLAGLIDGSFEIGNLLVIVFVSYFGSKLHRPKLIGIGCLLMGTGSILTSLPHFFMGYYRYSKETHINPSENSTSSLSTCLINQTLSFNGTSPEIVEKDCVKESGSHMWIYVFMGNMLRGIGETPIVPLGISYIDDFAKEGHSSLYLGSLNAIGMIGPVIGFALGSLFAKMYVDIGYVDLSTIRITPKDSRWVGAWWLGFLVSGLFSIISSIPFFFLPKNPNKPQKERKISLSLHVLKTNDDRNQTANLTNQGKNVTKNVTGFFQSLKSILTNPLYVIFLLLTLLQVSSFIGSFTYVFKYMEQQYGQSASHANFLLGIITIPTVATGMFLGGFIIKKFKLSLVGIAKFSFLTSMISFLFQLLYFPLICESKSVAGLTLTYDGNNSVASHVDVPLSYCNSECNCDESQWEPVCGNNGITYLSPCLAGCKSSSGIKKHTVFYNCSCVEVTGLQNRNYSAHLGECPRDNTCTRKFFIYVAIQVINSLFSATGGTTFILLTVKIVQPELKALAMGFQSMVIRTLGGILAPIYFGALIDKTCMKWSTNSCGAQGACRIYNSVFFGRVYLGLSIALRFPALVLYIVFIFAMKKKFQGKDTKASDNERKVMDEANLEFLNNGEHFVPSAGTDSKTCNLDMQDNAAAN

OAT4 = biological target: T2, OAT4 (Homo sapiens, UniProt Q9NSA0); assay: inhibition of methotrexate uptake in OAT4-expressing HEK293 cells; also transported; type: cell-based; details: read-out: Dicloxacillin / IC50 (95% CI)
T2 construct: gene SLC22A11
T2 sequence (Q9NSA0 1-550): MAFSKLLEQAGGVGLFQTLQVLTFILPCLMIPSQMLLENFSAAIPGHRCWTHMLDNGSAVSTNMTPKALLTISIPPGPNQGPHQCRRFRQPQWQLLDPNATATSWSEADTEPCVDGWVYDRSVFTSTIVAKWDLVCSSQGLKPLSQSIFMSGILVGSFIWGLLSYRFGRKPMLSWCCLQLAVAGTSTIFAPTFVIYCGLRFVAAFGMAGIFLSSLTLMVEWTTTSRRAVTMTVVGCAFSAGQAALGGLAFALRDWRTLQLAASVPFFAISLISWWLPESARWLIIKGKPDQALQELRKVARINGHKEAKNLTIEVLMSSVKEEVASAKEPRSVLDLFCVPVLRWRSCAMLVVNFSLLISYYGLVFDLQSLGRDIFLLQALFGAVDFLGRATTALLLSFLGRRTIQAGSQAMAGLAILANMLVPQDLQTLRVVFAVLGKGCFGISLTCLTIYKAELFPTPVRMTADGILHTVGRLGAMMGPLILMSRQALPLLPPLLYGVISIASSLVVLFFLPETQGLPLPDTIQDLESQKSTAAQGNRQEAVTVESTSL

pIC50 (OATP1B3): 5.18
pIC50 (OAT4): 5.14
Compound: Cc1onc(-c2c(Cl)cccc2Cl)c1C(=O)N[C@@H]1C(=O)N2[C@@H]1SC(C)(C)[C@@H]2C(=O)O [dicloxacillin]

— doi:10.1101/2025.10.21.683780 (bioRxiv, 2025)
